Measured values taken from US12194080B2, “Methods for identification, assessment, prevention, and treatment of metabolic disorders using PM20D1 and N-lipidated amino acids” (Dana-Farber Cancer Institute, Inc., priority 2015, dated 2025).

Legend:
[1] = Blood levels after a single i.p. dose; format: in vivo; settings: C57BL/6, mouse, ip, single 30 mg/kg i.p. dose, mean±SEM, n=3
Procedure: Animal experiments were performed according to procedures approved by the Beth Israel Deaconess Medical Center IACUC. Mice were maintained in 12 h light-dark cycles at 22° C. and fed a standard irradiated rodent chow diet. All experiments on wild-type mice were performed with male C57BL/6 mice purchased from Jackson Laboratories, except for the AAV experiments, which were performed with male C57BL/6 mice from Charles River. UCP1-KO (stock #017476) and 16-20 week DIO mice (stock #380050) were obtained from Jackson Laboratories. For AAV injection experiments, mice were gently warmed using a 250 W clear infrared heat lamp, immobilized, and injected via tail vein with 10^10 virus/mouse (diluted in saline) in a total volume of 100 μl/mouse. Where indicated, mice were placed on high-fat diet (60% fat, Research Diets). For cold exposure experiments, mice were group housed and placed at 4° C. for the indicated times. For the preparation of C18:1-Phe for in vivo injections, compounds were dissolved in 18:1:1 v/v/v saline:Kolliphor® EL (Sigma Aldrich):DMSO and sonicated until homogeneous. Mice were administered compounds at 5 μl/g body weight at the indicated doses. For all injection experiments, mice were mock injected with saline daily for 3 days prior to the start of the experiments. […]

BAT mitochondria = assay: Respiration of isolated crude BAT mitochondria; format: biochemical, mouse; settings: 10-100 μM; 10 mM pyruvate and 5 mM malate as substrates
Procedure: BAT pads from ten 6-12 week old male mice were harvested and minced on ice in isolation buffer (250 mM sucrose, 5 mM HEPES, and 1 mM EGTA) supplemented with 2% fatty acid-free BSA (Sigma). The tissue was then homogenized in a Teflon homogenizer and centrifuged (8,500×g, 10 min, 4° C.). The supernatant was discarded, the pellet was re-suspended in 20 ml isolation buffer supplemented with 1% fatty acid-free BSA, and centrifuged (700×g, 10 min, 4° C.). The supernatant was centrifuged one final time (8,500×g, 10 min, 4° C.). The pellet was re-suspended in isolation buffer supplemented with 1% fatty acid-free BSA (200 μl) to yield crude BAT mitochondria at 50-80 mg/ml. For respiration measurements, BAT mitochondria were diluted to in mitochondria respiration buffer (5 mM KCl, 4 mM KH2PO4, 5 mM HEPES, 1 mM EGTA, 1% fatty acid free BSA, 10 mM pyruvate, 5 mM malate, and 1 mM GDP) and plated at 15 μg/well (50 μl total volume) in an XF24 cell culture microplate. The plate was centrifuged (1000×g, 20 min, 4° C.), additional pre-warmed mitochondrial respiration buffer was added (450 μl), and respiration was measured on a XF24 Extracellular Flux Analyzer. The Seahorse program was run as follows: basal measurement, 2 cycles; inject port A (compounds), 1 cycle, inject port B (FCCP), 1 cycle, inject port C (rotenone), 1 cycle. Each cycle consisted of mix 0.5 min, wait 0 min, measure 2 min. […]

CCCCCCCC/C=C\CCCCCCCC(=O)N[C@@H](Cc1ccccc1)C(=O)O [C18:1-Phe, Oleoyl-L-phenylalanine]
concentration at 2 h ([1]; 2 h post-injection): 3000 ± 300 nM | concentration at 6 h ([1]; 6 h post-injection): 400 ± 100 nM | respiration of isolated mitochondria (BAT mitochondria): increased respiration in a dose-dependent manner
